In one assay the test system is asthma model in mice. Kind of assay: Ovalbumin (OVA) asthma model in mice: plethysmography, broncho-alveolar wash and lung cytology. The class given is in vivo. Particulars: one day after last OVA challenge; for intrabronchial infiltrate: broncho-alveolar wash; for respiratory function: Penh in response to increasing doses of metacholine: non-invasive plethysmography, i.p. daily. The text has this: b) Effect on the Respiratory Function in an Asthma Model in Mice
The compounds according to the invention were also subject to tests in vivo. Cromoglycate was used as a reference compound since presently it is the only compound presently marketed having been described as having an effect on the degranulation of basophils.
• The model used is an ovalbumin model (ova). The procedure includes: • 4 weeks of sensitization with ova solubilized in a solution containing alum and injected intra-peritoneally (I-P). • 1 week of challenge with 3 intranasal challenges of ova solubilized in phosphate buffer PBS for 3 subsequent days. • Injections of PBS, of compound (I.1) or of cromoglycate were carried out all along the challenge phase and continued until the date of analysis in an amount of one injection per day intra-peritoneally. • The analyses were carried out 1 and 5 days after the last intranasal challenge. • These analyses comprise:
One Day after the Last Challenge • an analysis the of the respiratory function by non-invasive plethysmography on 10 mice per group. The respiratory function is analysed in response to an increasing dose of metacholine (broncho-constrictor). • recovery and analysis of the broncho-alveolar wash (count of the number of cells, and cytological analysis) on 5 mice. • dissection of the lungs for cytological analysis (microscopic study after staining) on the same 5 mice.
Five Days after the Last Challenge • an analysis of the pulmonary resistance by the forced oscillation technique (invasive method) on the 5 remaining mice of different groups. The pulmonary resistance is analyzed in response to an increasing dose of metacholine (bronchoconstrictor). • recovery and analysis of the broncho-alveolar wash (counting the number of cells, and deposition on a slide by cytospin for cytological analysis) on these 5 mice.
A compound group (1.1) (n=10), an i-cm group (cromoglycate, n=10) and an i-PBS group (n=10).
The compound (I.1) is dissolved in a DMSO solution. This stock solution is then diluted in an ethanol:PBS (vol:vol) solution before intraperitoneal administration.
The Penh (enhanced pause) values, calculated from plethysmography measurements, express the prolongation of the expiratory pause time observed in subjects having a reduction of the bronchial calibre and are correlated with the respiratory resistance. A decrease in the Penh values therefore corresponds to a protective effect towards bronchoconstriction induced by OVA.

Another assay concerns normal human basophils. Description: Degranulation of normal human basophils after anti-IgE antibody, CD63 and CD203c expression by flow cytometry. Format: cell-based. Particulars: 4 donors; for Emax: Homo sapiens, effect-dose study, 1 to 100 micromolars; for dose effect, CD63 marker / dose effect, CD203c marker: between 1 and 100 micromolars, no plateau effect. An excerpt: The compounds according to the invention have a substantial protective activity towards the degranulation of normal human basophils, such that it may be evaluated by the overexpression of CD203c and of CD63 after exposure to an anti-IgE antibody. In particular, the concentration of the compound according to the invention giving the possibility of obtaining a 50% protective effect (with respect to a value of 100% corresponding to the control achieved in the absence of a compound according to the invention) belongs to the range from 1 to 100 micromolar.
a) Activity on the Degranulation of Normal Human Basophils CD203c and CD 63
This test consists of analyzing with flow cytometry the expression of the membrane markers CD203c and CD63 on normal human basophils. For this blood from healthy donors is exposed to an antibody directed against immunoglobulins E (IgE) which leads to activation and degranulation of the basophils, causing an increase in the expression of CD203c and CD63. […] As the compounds of interest are dissolved in dimethylsulfoxide (DMSO), a control is also produced by incubating the basophils in the presence of DMSO without any active ingredient.
On the technique in general: A flow cytometer gives signals particle by particle.

Where [1] appears, read: flow cytometry cytology, compared with PBS group.
The mark [2] stands for this setting: read-out: maximum effect on CD63.
Where [3] appears, read: read-out: maximum effect on CD203c.

The source of these data is US9896415B2, “Chalcone derivatives having an anti-allergic activity” (UNIVERSITE CLAUDE BERNARD LYON I, priority 2013, dated 2018).

“Also recorded” adds a separate entry of the source. Read-outs that look alike come from different tables or passages of the source.

`O=C(O)c1cc(=O)c2c(OCC(O)COc3cccc4oc(C(=O)O)cc(=O)c34)cccc2o1` [cromoglycate, reference compound]: in the assay on asthma model in mice (compared with PBS group), the intrabronchial infiltrate result is listed as “does not exhibit any significant difference” and the “respiratory function: Penh in response to increasing doses of metacholine” value is given as “same increases in Penh”. In the assay on asthma model in mice (setting [1]), the “eosinophils in the intrabronchial infiltrate” value was “does not show any significant reduction in the eosinophil infiltrate”.

For the molecule `COc1cc(O)c(C(=O)/C=C/c2c(Cl)cccc2Cl)c(OC)c1C1CCN(C)CC1` [compound (I.3)], the values for the Emax with normal human basophils (setting [2]) and with normal human basophils (setting [3]) were 80% and 40%, respectively. The “dose effect, CD63 marker” value in the assay with normal human basophils is on record as “A dose effect is observed”. In the assay on normal human basophils, the “dose effect, CD203c marker” value is recorded as “A dose effect is observed”.

Take `COc1cc(OC)c(/C=C/C(=O)c2c(O)cc(OC)c(C3CCN(C)CC3)c2OC)c(OC)c1` [compound (I.1)]: in the assay on asthma model in mice (compared with PBS group), the intrabronchial infiltrate result was “significant decrease in the intrabronchial infiltrate” and the “respiratory function: Penh in response to increasing doses of metacholine” value is given as “the difference is only significant for the dose at 40 mg/ml; also recorded: improves the respiratory function of the mice”. Also, in the assay on asthma model in mice (setting [1]), the “T lymphocytes in the intrabronchial infiltrate” value is listed as “reduction” and the “eosinophils in the intrabronchial infiltrate” value was “a reduction in the eosinophils”. The intra-pulmonary hypereosinophilia entry in the assay with asthma model in mice (lungs, flow cytometry cytology) was “much less substantial”. Further, the Emax with normal human basophils (setting [2]) is 80%. For the same molecule, the Emax with normal human basophils (setting [3]) was determined as 40%. Moreover, in the assay with normal human basophils, the “dose effect, CD63 marker” value was “A dose effect is observed” and the “dose effect, CD203c marker” value is “A dose effect is observed”.

For `COc1cccc(OC)c1/C=C/C(=O)c1c(O)cc(OC)c(C2CCN(C)CC2)c1OC` [compound (I.2)], the Emax in the assay on normal human basophils (setting [2]) turned out to be 80%. Further, in the assay on normal human basophils (setting [3]), the Emax stood at 40%. For the same molecule, in the assay on normal human basophils, the “dose effect, CD63 marker” value is listed as “A dose effect is observed” and the “dose effect, CD203c marker” value was “A dose effect is observed”.
